Source: article PMC4871512, “Drug-Based Lead Discovery: The Novel Ablative Antiretroviral Profile of Deferiprone in HIV-1-Infected Cells and in HIV-Infected Treatment-Naive Subjects of a Double-Blind, Placebo-Controlled, Randomized Exploratory Trial” (PLoS ONE, 2016)
Entries after “also recorded” stand apart in the source; their conditions may differ.

Experiments:
Format in all cases: cell-based
[1] = tested on: HIV-1 clinical isolate in PBMCs; assay: p24 core antigen ELISA in supernatant of isolate-infected, long-term replenished primary cell cultures; conditions: for p24, level relative to untreated controls: after two weeks, stably infected replenished primary cell cultures
Protocol: (§1) Cell-free supernatants were used for p24 and HIV-1 RNA measurements. p24 core antigen in the supernatant was quantified by ELISA (Retrotek HIV-1 p24®; ZeptoMetrix Corp.; Buffalo, NY). HIV-1 RNA copy number in the supernatant of PBMC cultures and in plasma of trial subjects enrolled in the exploratory deferiprone trial was determined with a PCR-based and FDA-approved assay (Amplicor HIV-1 Monitor®; Roche Diagnostics Corp.; Indianapolis, IN). For clinical samples, the assay was used per the Standard Specimen Processing Procedure (sensitivity limit 400 copies/ml); for cell culture samples, the assay was used in both the Standard Specimen Processing and the UltraSensitive Specimen Processing Procedure (sensitivity limit 50 copies/ml). If not specified further, the term “log10” designates the amount of HIV-1 RNA in the dimensions [log10 / ml]. The Roche Amplicor HIV-1 DNA Test (Roche Diagnostics Corp.; Indianapolis, IN) was used for detection of HIV-1 DNA with the primer pair SK431/462, which amplifies a highly conserved region of the gag genome of HIV-1 subtype B DNA. Results are shown per the assay’s optical readings of a chromogenic reaction that relates absorbance at 450 nm to the HIV-1 DNA copy number and is calibrated by assay-internal copy controls (A450 < 0.350, HIV-1 DNA absent; A450 ≥ 3.0, HIV-1 DNA present in excess of 20 copies; A450 between 0.350 and 3.0, HIV-1 DNA copy number per copy controls). Apoptotic DNA fragmentation was quantified flow-cytometrically, using a terminal deoxynucleotide transferase dUTP nick end-labeling (TUNEL) assay (APO-BRDU™; Phoenix Flow Systems; San Diego, CA). All experiments and assays were performed at least in duplicate.
(§2) The antiretroviral activity of deferiprone was tested in primary cultures of PBMCs, infected in vitro with clinical isolate or mock-infected with clinical isolate-identical cell- and virus-free medium as described. Briefly, to approximate the bi-compartmental mode of HIV-1 infection in vivo, which comprises a cell-generative compartment that provides non-infected but HIV-1 susceptible cells, and an HIV-generative compartment in which they become infected, the cultures were replenished as described with freshly obtained uninfected primary cells and medium at regular intervals, assuring identical cell number in both the treated and control cultures by computerized trypan blue exclusion analysis (Vi-CELL™; Beckman Coulter, Miami, FL); deferiprone concentrations were adjusted as indicated. This model allowed for months-long monitoring of HIV-1 parameters in productively infected cultures.

[2] = tested on: HIV-1 clinical isolate in PBMCs; assay: HIV-1 RNA copy number (Amplicor HIV-1 Monitor) in supernatant of isolate-infected PBMC cultures; conditions: for viral breakthrough during monotherapy: one week to one month
Protocol: as §1, §2

[3] = target: T1, deoxyhypusyl hydroxylase (DOHH) (Homo sapiens, UniProt Q9BU89); assay: Cellular DOHH activity by metabolic labeling of deoxyhypusyl-eIF5A and hypusyl-eIF5A with (1,8-3H)spermidine
T1 construct: endogenous in cells; host or cells: single-donor primary peripheral blood mononuclear cells (PBMCs), uninfected or infected with a clinical HIV-1 isolate
T1 sequence (Q9BU89 1-302): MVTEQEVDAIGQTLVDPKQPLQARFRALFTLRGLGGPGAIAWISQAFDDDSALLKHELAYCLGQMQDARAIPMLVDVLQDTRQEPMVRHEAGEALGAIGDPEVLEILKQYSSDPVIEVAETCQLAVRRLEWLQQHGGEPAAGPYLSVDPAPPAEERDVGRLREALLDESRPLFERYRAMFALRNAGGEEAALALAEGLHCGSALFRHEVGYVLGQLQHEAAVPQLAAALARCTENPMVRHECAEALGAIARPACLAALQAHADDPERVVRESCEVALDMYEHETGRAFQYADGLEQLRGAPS
Protocol: Fig 2 Effect of deferiprone in HIV-infected primary cells: Apoptotic DNA fragmentation, deoxyhypusyl-eIF5A accumulation, and DOHH activity. Apoptotic DNA fragmentation (Panel A) was detected by terminal deoxynucleotide transferase dUTP nick end labeling (TUNEL) of single-donor peripheral blood mononuclear cells, maintained in short-term non-replenished cultures as described. Cells were left uninfected and/or untreated; or infected immediately after plating with clinical HIV-1 isolate and 12 hours after infection, treated with 200 μM deferiprone. […] The dose-effect curve for inhibition of cellular DOHH by increasing deferiprone concentrations in short-term non-replenished single-donor cultures (Panel C) was calculated from the accumulation of its ^3H-labeled substrate and the decrease of its ^3H-labeled product; error bars are at the size of the graph symbols and not shown. Black, HIV-infected untreated cells; green, uninfected untreated cells; blue, uninfected deferiprone-treated cells; red, HIV-infected deferiprone-treated cells; large triangles, HIV-infected cells (red) or uninfected cells (blue) treated with 200 μM deferiprone.
Metabolic labeling with (1,8-^3H)spermidine at 5 μCi/ml for 18 hours was performed as described in primary cell cultures of the same volume, viability by dye exclusion, cell number, and donor origin. Following acid hydrolysis of each sample for release of radiolabeled hypusine and deoxyhypusine, separation by ion-exchange chromatography, and liquid scintillation measurement of incorporated label, 18 fractions were collected and the counts in the eluted fractions were proportionally adjusted to a total of 10,000 cpm per sample. This normalization adjusts for variances in the radioactivity of different samples and allows direct comparison of their hypusine-deoxyhypusine elution profiles. Only the hypusine- / deoxyhypusine-containing fractions (6 through 14) were used for analysis.

in vitro = conditions: human
Protocol: as §2

[4] = after withdrawal of 100 μM deferiprone

SMILES: Cc1c(O)c(=O)ccn1C [deferiprone, 3-hydroxy-1,2-dimethylpyridin-4-one]
- p24 after escalation of concentration ([1]; 50 μM for 30 days followed by escalation to 200 μM (data not shown)): complete suppression of p24 within one week
- p24 on-drug ([1]; 100 μM deferiprone): declined to the limit of detectability
- p24, level relative to untreated controls ([1]; 100 μM deferiprone): ≤ 10%
- p24, level relative to untreated controls ([1]; 200 μM deferiprone): ≤ 10%
- extracellular p24 after deferiprone withdrawal ([1]; after 100 μM deferiprone): increased rapidly to levels higher than pre-treatment
- p24 off-drug ([1]; after 200 μM deferiprone): did not rebound off-drug
- p24 expression ([1]; below 100 μM deferiprone): only marginally affected
- HIV-1 RNA decrease below the pre-treatment level of ≥10^6 copies/ml ([2]; 100 μM deferiprone, on-drug): one order of magnitude
- HIV-1 RNA new steady state ([2]; 100 μM deferiprone, on-drug): ~10^5 copies/ml
- viral breakthrough during monotherapy ([2]; 100 μM deferiprone, up to 35 days): did not elicit viral breakthrough; also recorded: did not allow viral breakthrough
- viral breakthrough during monotherapy ([2]; 200 μM (supra-threshold) deferiprone, up to 35 days / 5 weeks): did not allow viral breakthrough; also recorded: did not elicit viral breakthrough; also recorded: neither allowed breakthrough
- time to reach HIV-1 RNA ≤10^3 copies/ml ([2]; 200 μM deferiprone): 2–4 weeks
- HIV-1 RNA decrease below its initial range ([2]; 200 μM deferiprone (Fig 1B)): at least three orders of magnitude
- HIV-1 RNA level reached on-drug ([2]; 200 μM deferiprone, depending on combination of viral isolate and PBMCs): ≤ 10^3 copies/ml
- decline of HIV-1 RNA production ([2]; 200 μM deferiprone, repeated experiments): 3 log
- off-drug period in which HIV-1 RNA production failed to resume ([2]; after 200 μM deferiprone, replenished with fresh CD4+ lymphocytes (Fig 1)): at least 10 days
- post-treatment period to reacquire the original level of ≥10^6 copies/ml [2, 4]: about 5 days
- rate of HIV-1 RNA rebound to the pre-treatment range [2, 4]: +0.24 log10/ml/day
- viral copy number ([2]; below 100 μM deferiprone): only marginally affected
- HIV-1 RNA reduction relative to untreated cultures ([2]; off-drug after 200 μM deferiprone, apparently stable): ~ 4 log
- newly synthesized deoxyhypusyl-eIF5A accumulated in HIV-infected treated cells, higher than in uninfected treated cultures ([3]; 200 μM deferiprone): ~40%
- DOHH activity in the primary cells ([3]; at ≤100 μM deferiprone, infected and uninfected cultures): ≥ 90%
- cellular DOHH activity ([3]; at ≥200 μM deferiprone, infected and uninfected cultures): ≤ 8%
- viability at 200 µM (in vitro): ≥ 95%
- viability at 200 μM (in vitro): > 95%
